Reference: patent US12433876B2, “Septin inhibitors for treatment of cancers” (UNIVERSITY OF ROCHESTER, priority 2019, dated 2025)

Tested on: HER2
Assay: Western blot of HER2 expression in ECC-1 and HCH-1 cells
Assay type: cell-based
Settings: UR214-7 33 μM, UR214-9 33 μM, FCF 300 μM, 24 hours
Experimental: Cell lines, Culture, and Reagents. Cells were maintained in either DMEM (SKOV-3, KLE, OVCAR-3, OVCAR8-C5 and IGROV-1) or RPMI-1640 (ECC-1 and HCH-1), supplemented with 10% fetal calf serum (or 20% for OVCAR-3), penicillin (100 units/mL), and streptomycin (100 μg/mL) at 37° C. with 5% CO2 in a humidified incubator. Antibodies were purchased from Abcam (septin-2; ab179436) and Cell Signaling Technology; ERK (9102), p-ERK (4370), -actin (3700), u-Tubulin (2144), EGFR (4267) and HER2 (4290). FCF was purchased from Abcam. All other chemicals were from Sigma Aldrich. Synthesis of Derivaties. […] The reaction was monitored using thin-layer chromatography plates with DCM-MeOH or pure ethyl acetate as eluent. Spots were monitored in a UV chamber. The reaction mixture, upon completion of the reaction, was poured into wet ice mixture and triturated, then the separated solid was filtered by vacuum. The product was washed with hexane, followed by diethyl ether, and was dried under vacuum. The compounds were characterized by spectrophotometric techniques. Quantitative Real-Time PCR. The indicated cell lines were transfected with siRNA targeting septin-2 or non-targeting control siRNA (Santa Cruz Biotechnology: sc-37007 or sc-40936) using Lipofectamine 3000 (Invitrogen). […] Quantitative real-time PCR was conducted using QuantStudio 12 K Flex Real-Time PCR System (ABI) and the Taqman Gene Expression Assay (ABI) consisting of the FAM-labeled probes as follows: SEPT2 (Hs01565417_ml); WFDC2 (Hs00899484_ml); TBP (Hs00427620_ml) or B2M (Hs00187842_ml), which was used as reference for normalization. […] Cell viability, proliferation, and cellular apoptosis were measured using the MTS (Promega), BrdU cell proliferation (Cell Signaling Technology), and Caspase-Glo 3/7 apoptosis detection (Promega) assays, following the respective manufacturer's recommendations with suitable modification. […] Survival curves between septin high and low population and their statistical significance were analyzed using GraphPad Prism software (Mantel-Cox test). […]

Row | SMILES | HER2 expression
1 | O=C(Nc1cc(Cl)nc(Cl)c1)Nc1cccc(SC(F)(F)F)c1F [UR214-9] | inhibition of HER2 expression
2 | O=C(Nc1ccccc1)Nc1ccnc(Cl)c1 [FCF, N-(2-chloro-4-pyridyl)-N′-phenylurea, reference compound] | inhibition of HER2 expression
